Assay results as given in US20240366612A1, “COMPOUNDS AND METHODS FOR MODULATING NUCLEIC ACID SPLICING” (REMIX THERAPEUTICS INC., priority 2021, published 2024).

Experiments:
[1] = tested on: HiBiT-tagged Target C protein in K562 cells; assay: HiBiT protein abundance assay, Target C; type: cell-based, human; conditions: HiBiT-modified K562 cells, 24 hours, luminescence
Method: Compounds described herein were used to screen for effects on quantitative protein abundance using a HiBit assay system (Promega). Quantitative protein abundance was determined by measuring the protein levels of HiBit-tagged protein targets expressed in cell culture via luminescence using the Nano-Glo HiBiT Lytic Detection System, which uses a split complementation assay format to reconstitute NanoBiT enzyme to generate a luminescent signal. A protein abundance assay was developed such that endogenous protein targets could be modified with the HiBiT peptide tag and their abundance could be assessed after compound treatment. Briefly, K562 cell lines containing a HiBiT-modification were treated with various compounds described herein (e.g., compounds of Formulas (I), (II), or (III)). After treatment for 24 hours, the protein abundance of a specific target was determined by measuring luminescence.
• Promega Nano-Glo HiBiT Lytic Detection System (cat #N3030) • Corning 384-well TC-treated microplates (cat #3570) • Synthego Engineered Cells Knock-In Clones
Cells were maintained in IMDM with 10% FBS. Before the assay, cells were diluted with […] growth media (IMDM+1% FBS media) and were seeded in a 384-well plate at a density of 10000 cells/well (for each cell line listed in Table 5). Each compound was prepared as a 10-point 3-fold serial dilution in DMSO with the top dose at a final concentration of 10 μM in the well. Unmodified K562 cells were added at the previously specified density with DMSO to serve as an assay baseline and positive control (PC) and DMSO only with the respective modified cell lines was added to the negative control (NC) columns. Final DMSO concentration was kept at or below 0.25%. Treated cell plates were placed in an incubator at 37° C. with 5% CO2 for 24 hours. After 24 hours, 25 μL of Complete HiBit Lytic reagent was added to each well at room temperature (e.g. one plate requiring 10 mL Lytic Buffer, 100 μL LgBiT Protein, 200 μL Lytic Substrate), shaken for 5 minutes at 600 RPM, then left to sit for 10 minutes for signal to stabilize before reading on a Spark Cyto plate reader (Tecan) with a 500 ms measurement time.
To determine compound effects on protein abundance of each target in Table 5, the percent response for each respective cell line was calculated at each compound concentration as follows:
For the normalized response at each concentration, a four-parameter logistical regression was fit to the data and the response was interpolated at the 50% value to determine a concentration for protein abundance at 50% (IC50) the untreated control.

HTT CJ mRNA = assay: Gene panel canonical junction qPCR assay, HTT; type: cell-based; conditions: Homo sapiens, larger gene panel, read-out: HTT IC50 (decrease in CJ mRNA levels)
Method: (§1) Compounds described herein were used to modulate RNA transcript abundance in cells. The expression of a target mRNA was measured by detecting the formation of an exon-exon junction in the canonical transcript (CJ). A compound mediated exon-inclusion event was detected by observing an increase in formation of a new junction with an alternative exon (AJ). Real-time qPCR assays were used to detect these splicing switches and interrogate the potency of various compounds towards different target genes. A high-throughput real time quantitative PCR (RT-qPCR) assay was developed to measure these two isoforms of the mRNA (CJ and AJ) for exemplary genes, such as HTT, SMN2, and MYB, together with a control housekeeping gene, GAPDH or GUSB or PPIA, used for normalization. Briefly, the A673 or K562 cell line was treated with various compounds described herein (e.g., compounds of Formula (I)). After treatment, the levels of the HTT, MYB, or SMN2 mRNA targets were determined from each sample of cell lysate by cDNA synthesis followed by qPCR.
(§2) The A673 cell line was cultured in DMEM with 10% FBS. Cells were diluted with full growth media and plated in a 96-well plate (15,000 cells in 100 ul media per well). The plate was incubated at 37° C. with 5% CO2 for 24 hours to allow cells to adhere. An 11-point 3-fold serial dilution of the compounds was made in DMSO then diluted in media in an intermediate plate. Compounds were transferred from the intermediate plate to the cell plate with the top dose at a final concentration of 10 uM in the well. Final DMSO concentration was kept at or below 0.25%. The cell plate was returned to the incubator at 37° C. with 5% CO2 for an additional 24 hours.
(§3) The K562 cell line was cultured in IMDM with 10% FBS. For K562, cells were diluted with full growth media and plated in either a 96-well plate (50,000 cells in 50 uL media per well) or a 384-well plate (8,000-40,000 cells in 45 uL media per well). An 11-point 3-fold serial dilution of the compounds were made in DMSO then diluted in media in an intermediate plate. Compound was transferred from the intermediate plate to the cell plate with the top dose at a final concentration of 10 uM in the well. Final DMSO concentration was kept at or below 0.25%. Final volume was 100 uL for 96-well plate and 50 uL for 384-well plate. The cell plate was then placed in an incubator at 37° C. with 5% CO2 for 24 hours.
(§4) The data analysis was performed by first determining the ΔCt vs the housekeeper gene. This ΔCt was then normalized against the DMSO control (ΔΔCt) and converted to RQ (relative quantification) using the 2^(−ΔΔCt) equation. The RQ were then converted to a percentage response by arbitrarily setting an assay window of 3.5 and 4.0 ΔCt for HTT-CJ and MYB-CJ respectively and an assay window of 9 and 3 ΔCt for HTT-AJ and MYB-AJ in 96 well format (50,000 K562 cells/well and 15,000 A673 cells per well) and an assay window of 3 and 4 ΔCt for HTT-CJ and MYB-CJ respectively and an assay window of 5 and 3 ΔCt for HTT-AJ and MYB-AJ respectively in 384 well format (8,000 K562 cells/well example). […] The percentage response was then fitted to the 4 parametric logistic equation to evaluate the concentration dependence of compound treatment. The increase in AJ mRNA is reported as AC50 (compound concentration having […] in AJ increase) while the decrease in CJ mRNA levels is reported as IC50 (compound concentration having 50% response in CJ decrease).
(§5) Additional studies were carried out for a larger panel of genes using the protocol provided above. The junction between flanking upstream and downstream exons was used to design canonical junction qPCR assays. At least one of the forward primer, reverse primer or the CY5-labeled 5′ nuclease probe (with 3′ quencher such as ZEN/Iowa Black FQ) was designed to overlap with the exon junction to capture the CJ mRNA transcript. […]

SMN2 CJ mRNA = assay: Gene panel canonical junction qPCR assay, SMN2; type: cell-based; conditions: Homo sapiens, larger gene panel, read-out: SMN2 IC50 (decrease in CJ mRNA levels)
Method: as §1, §2, §3, §4, §5

| SMILES | IC50 [1] [nM] | IC50 (HTT CJ mRNA) [nM] | IC50 (SMN2 CJ mRNA) [nM] |
| --- | --- | --- | --- |
| Cc1cn2cc(-c3cc4ncn([C@H]5CCNC[C@H]5F)c(=O)c4s3)cc(F)c2n1 (relative stereo) [Compound 273, cis-6-{8-fluoro-2-methylimidazo[1,2-a]pyridin-6-yl}-3-[3-fluoropiperidin-4-yl]thieno[3,2-d]pyrimidin-4-one] | 1000 to 10000 | 100 to 1000 | 100 to 1000 |
| Cc1cn2cc(-n3cnc4nc(N5CCNCC5)sc4c3=O)cc(F)c2n1 [Compound 226, 6-(8-fluoro-2-methylimidazo[1,2-a]pyridin-6-yl)-2-(piperazin-1-yl)thiazolo[4,5-d]pyrimidin-7(6H)-one] | 100 to 1000 | 100 to 1000 | 100 to 1000 |
| Cc1cn2cc(-c3cc(=O)n4cc(N5CCNC6(CC6)C5)sc4n3)cc(F)c2n1 [Compound 207, 7-(8-fluoro-2-methylimidazo[1,2-a]pyridin-6-yl)-2-(4,7-diazaspiro[2.5]octan-7-yl)-5H-thiazolo[3,2-a]pyrimidin-5-one] | > 10000 | > 10000 | 100 to 1000 |
| Cc1cn2cc(-c3nn4c(=O)cc(N5CCNCC5)nc4s3)cc(F)c2n1 [Compound 214, 2-(8-fluoro-2-methylimidazo[1,2-a]pyridin-6-yl)-7-(piperazin-1-yl)-5H-[1,3,4]thiadiazolo[3,2-a]pyrimidin-5-one] | > 10000 | 1000 to 10000 | 100 to 1000 |
| Cc1cn2cc(-c3cc4ncn(C5CCN(C)CC5)c(=O)c4s3)cc(F)c2n1 [Compound 265, 6-{8-fluoro-2-methylimidazo[1,2-a]pyridin-6-yl}-3-(1-methylpiperidin-4-yl)thieno[3,2-d]pyrimidin-4-one] | 100 to 1000 | 100 to 1000 | < 100 |
| Cc1cn2cc(-n3cnc4nc(N5CCNCC5)sc4c3=O)cc(C(F)(F)F)c2n1 [Compound 229, 6-(2-methyl-8-(trifluoromethyl)imidazo[1,2-a]pyridin-6-yl)-2-(piperazin-1-yl)thiazolo[4,5-d]pyrimidin-7(6H)-one] | > 10000 | > 10000 | > 10000 |
| Cc1cn2nc(-c3cc4ccn(C5CCNCC5)c(=O)c4s3)cc(C)c2n1 [Compound 806, 2-(2,8-dimethylimidazo[1,2-b]pyridazin-6-yl)-6-(piperidin-4-yl)thieno[2,3-c]pyridin-7(6H)-one] | 100 to 1000 | 100 to 1000 | 100 to 1000 |
| Cn1cc2cc(-n3cnc4nc(N5CCNCC5)sc4c3=O)ccc2n1 [Compound 225, 6-(2-methyl-2H-indazol-5-yl)-2-(piperazin-1-yl)thiazolo[4,5-d]pyrimidin-7(6H)-one] | > 10000 | > 10000 | > 10000 |
| Cc1cn2cc(-c3cc4ccn(C5CCNCC5)c(=O)c4s3)cc(F)c2n1 [Compound 804, 2-(8-fluoro-2-methylimidazo[1,2-a]pyridin-6-yl)-6-(piperidin-4-yl)thieno[2,3-c]pyridin-7(6H)-one] | 100 to 1000 | 100 to 1000 | 100 to 1000 |
| Cc1cn2cc(-c3cc(=O)n4nc(N5CCNC6(CC6)C5)sc4n3)cc(F)c2n1 [Compound 209, 7-(8-fluoro-2-methylimidazo[1,2-a]pyridin-6-yl)-2-(4,7-diazaspiro[2.5]octan-7-yl)-5H-[1,3,4]thiadiazolo[3,2-a]pyrimidin-5-one] | 1000 to 10000 | 1000 to 10000 | 1000 to 10000 |
| Cc1cc(-c2cc(=O)n3cc(N4CCN(C)CC4)sc3n2)cc2cn(C)nc12 [Compound 109, 7-(2,7-dimethyl-2H-indazol-5-yl)-2-(4-methylpiperazin-1-yl)-5H-thiazolo[3,2-a]pyrimidin-5-one] | > 10000 | > 10000 | > 10000 |
| Cc1cn2cc(-c3cc(=O)n4nc(N5CCN(C)CC5)sc4n3)cc(F)c2n1 [Compound 159, 7-(8-fluoro-2-methylimidazo[1,2-a]pyridin-6-yl)-2-(4-methylpiperazin-1-yl)-5H-[1,3,4]thiadiazolo[3,2-a]pyrimidin-5-one] | 1000 to 10000 | 1000 to 10000 | 1000 to 10000 |
| Cc1cn2nc(-c3nc4ncn(C5CCNCC5)c(=O)c4s3)cc(C)c2n1 [Compound 231, 2-(2,8-dimethylimidazo[1,2-b]pyridazin-6-yl)-6-(piperidin-4-yl)thiazolo[4,5-d]pyrimidin-7(6H)-one] | 100 to 1000 | 100 to 1000 | 1000 to 10000 |
| Cc1cn2cc(-c3nn4c(=O)cc(N5CCNC6(CC6)C5)nc4s3)cc(F)c2n1 [Compound 216, 2-(8-fluoro-2-methylimidazo[1,2-a]pyridin-6-yl)-7-(4,7-diazaspiro[2.5]octan-7-yl)-5H-[1,3,4]thiadiazolo[3,2-a]pyrimidin-5-one] | 1000 to 10000 | 1000 to 10000 | 1000 to 10000 |
| Cc1cc(-c2nn3c(=O)cc(N4CCN(C)CC4)nc3s2)cc2cn(C)nc12 [Compound 210, 2-(2,7-dimethyl-2H-indazol-5-yl)-7-(4-methylpiperazin-1-yl)-5H-[1,3,4]thiadiazolo[3,2-a]pyrimidin-5-one] | 1000 to 10000 | 1000 to 10000 | 1000 to 10000 |
| Cc1cn2cc(-c3nn4c(=O)cc(N5CCN(C)C6(CC6)C5)nc4s3)cc(F)c2n1 [Compound 218, 2-(8-fluoro-2-methylimidazo[1,2-a]pyridin-6-yl)-7-(4-methyl-4,7-diazaspiro[2.5]octan-7-yl)-5H-[1,3,4]thiadiazolo[3,2-a]pyrimidin-5-one] | 1000 to 10000 | 1000 to 10000 | 1000 to 10000 |
| COc1cc(-c2cc3ncn(C4CCNCC4)c(=O)c3s2)cnn1 [Compound 260] | 1000 to 10000 | 1000 to 10000 | 1000 to 10000 |
